{
  "source": "patent US9399194B2",
  "about": "“Methods for treating a liquid using draw solutions” (priority 2014, dated 2016)",
  "key": {"[1]": {"test": "Freezing point depression osmometry: maximum concentration and osmotic pressure", "assay_type": "physicochemical", "details": "for maximum osmotic pressure (projected): full/high concentration, projected from dilute solution freezing point data", "method": "(§1) House deionized (DI) water was used in all experiments. CHP was obtained from Alfa Aesar and used as received. All equipment was used in accordance with manufacturer specifications unless stated otherwise. Freezing point depression osmometry was performed using an Advanced Instruments, Inc. Model 3250 Osmometer. Viscosity measurements were made using the falling bob method with a Cambridge Applied Systems VL4100 viscometer.\nThe diamond symbols indicate molality of amine and ammonium ions. The square symbols indicate the total species molality including amines, ammonium ions, and carbonate species. […] There is strong evidence that as osmotic pressures increase, there are diminishing returns in terms of kinetics for osmotic flux. For any osmotic pressure over 370 atm, the osmotic pressure of a saturated NaCl solution is likely to be less important than solute and solution properties like diffusion and viscosity.\nThe maximum osmotic pressures of different tertiary amines were determined by osmometry."}, "[2]": {"test": "Draw solution degassing monitored by freezing point osmometry", "assay_type": "physicochemical", "details": "for temperature needed to degas: ambient atmospheric pressure, comparable kinetics", "source_text": "To determine the relative performance of CHP and DMCA at different temperatures, draw solutions containing CHP or DMCA were recirculated through a segment of a heat exchanger featuring a high surface area honeycomb composition design with a temperature regulated fluid recirculated through the other path. Concentration data was collected with a freezing point osmometer by conventional techniques. Osmolality is an excellent predictor for the pressure needed to remove dissolved solids by filtration. Generally, 1 Osm/Kg corresponds to about 24.5 atm.\nUpon addition of one atm of CO2 to the draw solution of Example 1, the oily, nonpolar CHP readily produced the corresponding polar ammonium bicarbonate acid-base salt. To test the degassing process, CHP-ammonium bicarbonate solutions were recirculated through a high surface area heat exchanger with a gear pump while the other loop of the heat exchanger was attached to a recirculating heat bath that was set to the desired temperature. The experiment progression was monitored with a freezing point osmometry. The degassing process was intended to reduce the solution osmotic pressure, reducing it to nothing or minimizing it for a low pressure RO treatment. The progress of the degassing reaction was measured by osmometry, which corresponds to osmotic pressure and can be rapidly obtained. For comparison, a draw solution including DMCA-H^+ was also investigated. In the case of DMCA at full concentration, it will start degassing at a temperature as low as 25° C., requiring viscosity measurements to be made at 15° C. However, DMCA requires nearly reflux conditions to fully remove the CO2."}, "[3]": {"details": "at 25° C.; cited from earlier work"}, "[4]": {"test": "Viscosity and density of the CHP-H+ draw solution", "assay_type": "physicochemical", "method": "as §1\nDI water (229.7 g) and CHP (221.2 g, 1.32 mol) were placed in a bottle equipped with a gas diffuser and exposed to a steady stream of carbon dioxide for 3 hours while being stirred with a magnetic stir bar. The resulting product was a clear homogeneous solution with a mass of 491.4 g, a solution viscosity of 44.0 cP at 15.0° C., and a density of 1.09 g/ml at 21° C. After exposure to the carbon dioxide, the solution contained CHP-H^+ (i.e., CHP in its polar form)."}, "[5]": {"test": "Forward osmosis flux experiments (FO mode) against pure water", "details": "about 30 wt % CHP-H+ or 0.9 mol/kg NaCl against pure water, identical membranes", "method": "All flux experiments were conducted in “FO mode” with the membrane's active layer facing the feed solution. The process was allowed 1-5 minutes to equilibrate and the average of the next 10 minutes was reported as the “initial flux.”\nUsing identical membranes and test conditions, the water flux for CHP-H^+ was 10 kg/m^2 hr compared with 10 kg/m^2 hr for the NaCl solution."}, "[6]": {"details": "saturated NaCl solution; cited from earlier work"}},
  "note": "Where “and” joins values, the source holds several entries; their conditions need not be identical. Equal entries are not always repeated.",
  "data": [
    {"compound": "C1CCC(N2CCCCC2)CC1", "note": "[CHP, 1-cyclohexylpiperidine]", "values": [
      {"measurement": "amine:carbonic acid ratio", "setting": "[1]", "value": 1.00},
      {"measurement": "maximum osmotic pressure", "setting": "[1]; by osmometry, FIG. 4", "value": "greater than 250 atm"},
      {"measurement": "maximum osmotic pressure (projected)", "setting": "[1]", "value": "536 atm and > 500 atm"},
      {"measurement": "temperature needed to degas", "setting": "[2]", "value": "about 70 °C"},
      {"measurement": "vapor pressure", "setting": "[3]", "value": "about 0.1 mm Hg"}
    ]},
    {"compound": "C1CCC(N2CCCCC2)CC1", "note": "[CHP-H^+]", "values": [
      {"measurement": "solution viscosity", "setting": "[4]; draw solution of Example 1, at 15.0° C.", "value": 44.0, "unit": "cP"},
      {"measurement": "density", "setting": "[4]; draw solution of Example 1, at 21° C.", "value": 1.09, "unit": "g/mL"},
      {"measurement": "maximum osmotic pressure (projected)", "setting": "[1]", "value": "greater than 500 atm"},
      {"measurement": "water flux (initial flux)", "setting": "[5]", "value": 10, "unit": "kg/m^2 hr"},
      {"measurement": "osmolality after degassing", "setting": "[2]; 70° C., after extended treatment", "value": 0.2, "unit": "Osm/Kg"},
      {"measurement": "osmolality after degassing", "setting": "[2]; 70° C., within 3 hours", "value": 0.6, "unit": "Osm/Kg"}
    ]},
    {"compound": "CN(C)C1CCCCC1", "note": "[DMCA, N,N-dimethylcyclohexylamine]", "values": [
      {"measurement": "temperature needed to degas", "setting": "[2]", "value": "about 95 °C"},
      {"measurement": "temperature at which degassing starts", "setting": "[2]; full concentration", "value": 25, "unit": "°C"},
      {"measurement": "vapor pressure", "setting": "[3]", "value": "about 2.2 mm Hg"}
    ]},
    {"compound": "CN(C)C1CCCCC1.O=C(O)O", "note": "[DMCA-H^+, dimethylcyclohexylammonium bicarbonate]", "values": [
      {"measurement": "maximum osmotic pressure (projected)", "setting": "[1]", "value": "~835", "unit": "atm"},
      {"measurement": "osmolality after degassing", "setting": "[2]; 70° C., after 4-6 hours", "value": 2.4, "unit": "Osm/Kg"},
      {"measurement": "osmolality after degassing", "setting": "[2]; 95° C., after 6.5 hours", "value": 0.2, "unit": "Osm/Kg"}
    ]},
    {"compound": "[Cl-].[Na+]", "note": "[NaCl, reference compound]", "values": [
      {"measurement": "water flux (initial flux)", "setting": "[5]", "value": 10, "unit": "kg/m^2 hr"},
      {"measurement": "osmotic pressure", "setting": "[6]", "value": 370, "unit": "atm"}
    ]}
  ]
}
